Experimental findings from patent US6469052B2, “Compounds for the photodecontamination of pathogens in blood” (Cerus Corporation, priority 1993, dated 2002) are described below.

Each structure is given as a SMILES string. Read-outs that look alike come from different tables or passages of the source.

Data set [1] has as its system Salmonella typhimurium TA1538. Briefly: Ames assay (dark mutagenicity), strain TA1538. An excerpt: (§1) The second property that is important in testing a compound for use in methods of the present invention is mutagenicity. The most widely used mutagen/carcinogen screening assay is the Ames test. This assay is described by D. M. Maron and B. N. Ames in Mutation Research 113: 173 ( 1983) and a specific screen is described in detail in Example 17, below. The Ames test utilizes several unique strains of Salmonella typhimurium that are histidine- dependent for growth and that lack the usual DNA repair enzymes. The frequency of normal mutations that render the bacteria independent of histidine (i.e., the frequency of spontaneous revertants) is low. The test allows one to evaluate the impact of a compound on this revertant frequency.
(§2) In this example the compounds of the present invention are tested for their dark mutagenicity using an Ames assay. The procedures used for the Salmonella mutagenicity test as described in detail by Maron and Ames were followed exactly. Maron, D. M. and B. N. Ames, Mutation Research 113: 173 ( 1983). A brief description for each procedure is given here. The tester strains TA97a, TA98, TA100, TA102, TA1537 and TA1538 were obtained from Dr. Ames. TA97a, TA98, TA1537 and TA1538 are frameshift tester strains. TA100 and TA102 are base-substitution tester strains. Upon receipt each strain was cultured under a variety of conditions to confirm the genotypes specific to the strains.
(§3) The first tests done with the strains were to determine the range of spontaneous reversion for each of the strains. With each mutagenicity experiment the spontaneous reversion of the tester strains to histidine independence was measured and expressed as the number of spontaneous revertants per plate. This served as the background controls.
(§4) For all experiments, the pre-incubation procedure was used. In this procedure one vial of each tester strain was thawed and 20 μL of this culture was added to 6 mL of Oxoid Nutrient Broth #2. This solution was allowed to shake for 10 hours at 37° C. In the pre-incubation procedure, 0.1 mL of this overnight culture was added to each of the required number of sterile test tubes. To half of the tubes 0.5 mL of a 10% S-9 solution containing Aroclor 1254 induced rat liver extract (Molecular Toxicology Inc., Annapolis, Md.), and MgCl2, KCl, glucose-6-phosphate, NADP, and sodium phosphate buffer (Sigma, St. Louis, Mo.) were added. To the other half of the tubes 0.5 mL of 0.2M sodium phospate buffer, pH 7.4, was used in place of the S-9 mixture (the -S9 samples). Finally 0.1 mL of the test solution containing either 0, 0.1, 0.5, 1, 5, 10, 50, 100, 250, or 500 μg/mL of the test compound was added. The 0.7 mL mixture was vortexed and then pre-incubated while shaking for 20 minutes at 37° C. After shaking, 2 mL of molten top agar supplemented with histidine and biotin were added to the 0.7 mL mixture and immediately poured onto a minimal glucose agar plate (volume of base agar was 20 mL). The top agar was allowed 30 minutes to solidify and then the plates were inverted and incubated for 44 hours at 37° C. After incubation the number of revertant colonies on each plate were counted. […] (“n” represents the number of replicates performed for each data point.)
(§5) Maron and Ames (1983) describe the conflicting views with regard to the statisical treatment of data generated from the test.
On the technique in general: In the Ames test, an excess of revertant colonies over the control signals mutagenicity.

For data set [2], the system named is Salmonella typhimurium TA97a.
Source text: as §1, §2, §3, §4, §5

Data set [3] concerns Salmonella typhimurium TA102. Description: Ames assay (dark mutagenicity), strain TA102.
Source text: as §1, §2, §3, §4, §5

For data set [4], the system named is Chinese hamster ovary (CHO) cells. Description: In vitro genotoxicity screen in CHO cells. The data set is classed as cell-based. The settings on record: approximately 3 hours exposure in the dark, dilutions 1-1000 μg/ml. An excerpt: The positive control was methylmethane sulfonate.
Coverslips were mounted with Permount.

In data set [5] the test system is Duck Hepatitis B Virus (DHBV). Briefly: Inactivation of DHBV in platelet concentrate, PCR amplification readout. The settings on record: 5J/CM^2 UVA. As to the method:
This example describes the protocol for inactivation of Duck Hepatitis B Virus (DHBV), a model for Hepatitis B Virus, using compounds of the present invention. DHBV in duck yolk was added to platelet concentrate (PC) to a final concentration of 2×10^7 particles per mL and mixed by gentle rocking for ≧15 min. […] Samples, including controls without added psoralen, were irradiated with 5J/CM^2 UVA, with mixing at 1 J/cm^2 increments. After irradiation, leukocytes and platelets were separated from virus by centrifugation. […] Samples were extracted with phenol-chloroform and chloroform, followed by ethanol precipitation. […] PCR amplicons were generated using primers pairs DCD03/DCD05 (127 bp), DCD03/DCD06 (327 bp) and DCD03/DCD07 (1072 bp). PCR was performed in a standard PCR buffer containing 0.2 mM each deoxyribonucleoside 5′-triphosphates (dATP, dGTP, dCTP, and dTTP), […], and 0.5 units Taq polymerase per […]. 30 cycles of amplification were performed with the following thermal profile: 95° C. 30 sec, 60° C. 30 sec, 72° C. 1 min. The amplification was followed by a 7 min incubation at 72° C. to yield full length products. […] was added at an amount of […] in order to detect and quantify the resulting products. Products were separated by electrophoresis on denaturing polyacrylamide slab gels and counted. The absence of signal in a given reaction was taken to indicate effective inactivation of DHBV.

The subject of data set [6] is Salmonella typhimurium TA1537. Description: Ames assay (dark mutagenicity), strain TA1537.
Source text: as §1, §2, §3, §4, §5

The next data set deals with human platelets. To be noted: 100 μM compound, 5 Joules/cm^2, 5 days storage. On the procedure:
(§6) To measure the effects of the present compounds and methods of decontamination on platelet function using these four indicators, four samples were prepared for each compound tested, two control samples and two containing compound. Three units of human platelets were obtained from the Sacramento Blood Center, Sacramento, Calif. These were each transferred under sterile conditions to 50 ml centrifuge tubes, then aliquots of each unit were transferred into a second set of 50 ml sterile centrifuge tubes. To each centrifuge tube containing platelet concentrate (PC), an aliquot of compound stock was added to reach a final concentration of 100 μM of compound. […] The samples were pipetted gently up and down to mix. Then aliquots (either 3 ml or 8 ml) of each sample was transferred to two sterile Teflon™ Medi-bags™ (American Fluoroseal Co., Silver Springs, Md.) (presently owned by The West Company, Lionville, Pa.). Samples were treated in one of two different sized bags, having either 3 ml or 8 ml capacity. […] For each compound tested, two control samples without compound were prepared by again removing aliquots of platelet concentrate (17 ml if using an 8 ml bag, […] if using a 3 ml bag) from the same one of the first set of 50 ml centrifuge tubes from which the compound sample was drawn, and dividing into Medibags, as before. One of each pair of Medibags containing a compound, and one of each pair of control Medibags, were illuminated for 5 Joules/cm^2 on the device described in Example 1, above. Then all experimental and control Medibags were placed on a platelet shaker for storage for 5 days. The same experiments were repeated several times to obtain more statistically meaningful data, as represented by “n”, the number of data points represented, in the graphs of FIGS. 21-24, discussed below.
A Sysmex cell counter was used to measure platelet count in the platelet samples. Samples were diluted 1:3 in blood bank saline.

Another data set has as its system mouse reticulocytes. The settings on record: increased dose levels, male Balb/c mice, tail vein. As to the method:
Male Balb/c mice were then injected with 0.1 ml of a compound solution via the tail vein. At least 3 mice were injected per dose level. Saline only was used as a negative control. For a positive control, cyclophosphamide (cycloPP) was administered at a dose of 30 mg/kg. In the experimental group, the injections were repeated once per day for four days. In the positive control group, the sample was administered only once, on day three. On day 5, several microliters of blood were withdrawn from each subject and smeared on a glass slide. Cells were fixed in absolute methanol and stored in a slide rack.
For analysis, cells were stained with acridine orange and visualized under a fluorescence microscope by counting: (i) the number of reticulocytes per 5000 erythrocytes; and (ii) the number of micronucleated reticulocytes per 1000 reticulocytes. Reticulocytes were distinguished by their red fluorescence due to the presence of RNA. Micronuclei were distinguished by their green fluorescence due to the presence of DNA. The percentage of reticulocytes (%PCE) was then calculated. A decrease in the frequency of […] in the percentage of reticulocytes, is an indication of bone marrow toxicity. The percentage of reticulocytes with micronuclei (%PCE with MN) was also calculated. An increase in %PCE with MN is a measure of clastogenicity.
After initial results were determined, the experiment was repeated using increased dose levels, until: (i) Micronucleus formation was seen; or (ii) Bone marrow toxicity was observed; or (ii) The lethal dose was reached; or (iv) A dose of 5 g/kg was administered.

Data set [7] relates to GMP-140 (p-selectin) on platelets. Description: Platelet function: GMP-140 expression (flow cytometry, CD62). The data set is classed as cell-based, human. To be noted: 100 μM compound, 5 Joules/cm^2, 5 days storage. As to the method:
as §6
In general terms: In flow cytometry, cells or beads pass a laser one at a time.

Data set [8] concerns Salmonella tester strains TA97a, TA98, TA100, TA102, TA1537 and TA1538. Briefly: Ames assay, overall assessment over the tester strains.
Source text: as §1, §2, §3
For all experiments, the pre-incubation procedure was used. In this procedure one vial of each tester strain was thawed and 20 μL of this culture was added to 6 mL of Oxoid Nutrient Broth #2. This solution was allowed to shake for 10 hours at 37° C. In the pre-incubation procedure, 0.1 mL of this overnight culture was added to each of the required number of sterile test tubes. To half of the tubes 0.5 mL of a 10% S-9 solution containing Aroclor 1254 induced rat liver extract (Molecular Toxicology Inc., Annapolis, Md.), and MgCl2, KCl, glucose-6-phosphate, NADP, and sodium phosphate buffer (Sigma, St. Louis, Mo.) were added. To the other half of the tubes 0.5 mL of 0.2M sodium phospate buffer, pH 7.4, was used in place of the S-9 mixture (the -S9 samples). Finally 0.1 mL of the test solution containing either 0, 0.1, 0.5, 1, 5, 10, 50, 100, 250, or 500 μg/mL of the test compound was added. […] After incubation the number of revertant colonies on each plate were counted. […]

In data set [9] the test system is Salmonella typhimurium TA98. Description: Ames assay (dark mutagenicity), strain TA98.
Source text: as §1, §2, §3, §4, §5

Take `Cc1oc2c(C)c3oc(=O)cc(C)c3cc2c1CN` [AMT, 4′-Aminomethyl-4,5′,8-trimethylpsoralen, reference compound]: the entries for the “dose at which frameshift mutagenicity was shown” value in data set [1] (TA1538) and in data set [6] (TA1537) were 1 μg/plate and 5 μg/plate, respectively. The revertants per plate in [1] (TA1538 −S9, 0.1 μg/plate) was 3; in data set [1] (TA1538 −S9, 0.5 μg/plate), 4; in data set [1] (TA1538 −S9, 1 μg/plate), 4; in data set [1] (TA1538 −S9, 5 μg/plate), 13; in [1] (TA1538 −S9, 10 μg/plate) it was 14; in [2] (TA97a −S9, 0.1 μg/plate), 14. In addition, the revertants per plate in data set [2] (TA97a −S9, 0.5 μg/plate) was 9; in [2] (TA97a −S9, 1 μg/plate), 54; in [2] (TA97a −S9, 5 μg/plate) it was 73; in data set [3] (TA102 +S9, 0.1 μg/plate), −20; in data set [3] (TA102 +S9, 0.5 μg/plate), 5; in data set [3] (TA102 +S9, 1 μg/plate) it was −17. Also, the revertants per plate in data set [3] (TA102 +S9, 5 μg/plate) came out at 51; in data set [6] (TA1537 +S9, 100 μg/plate), 500. The “genotoxic (toxic) concentration” value in [4] was found to be 30 µg/mL. The “PCR amplification of the 1072 bp DHBV amplicon” value is “a signal could be detected” in [5]; “inhibited PCR amplification” in data set [5] (70 and 100 mM levels).

For `Cc1cc(=O)oc2c(C)c3oc(CNCCCCN)c(C)c3cc12` [Compound 17, 5′-(6-amino-2-aza)hexyl-4,4′,8-trimethylpsoralen], the “platelet count compared with samples treated with light alone” value in the data set with human platelets is reported as “higher platelet count than samples treated with light alone”. Besides, the “outcome of dose escalation in the micronucleus assay” value in the data set with mouse reticulocytes was “the acutely lethal dose was reached before there were any signs of bone marrow toxicity or micronucleus formation”. Besides, the “GMP-140 expression: sample treated with light and psoralen (PCD) versus day 5 untreated control (D5)” value in [7] is “little or no difference”.

With `Cc1cc(=O)oc2c(C)c3oc(COCCN)c(C)c3cc12` [Compound 18, 5′-(4-amino-2-oxa)butyl-4,4′,8-trimethylpsoralen], the “platelet count compared with samples treated with light alone” value with human platelets is given as “higher platelet count than samples treated with light alone”. Besides, the “outcome of dose escalation in the micronucleus assay” value with mouse reticulocytes is “the acutely lethal dose was reached before there were any signs of bone marrow toxicity or micronucleus formation”. Moreover, the “mutagenic response compared with AMT” value in data set [8] (in the absence of S9) is reported as “higher in the absence of S9, but still was significantly below that of AMT”. In addition, the mutagenic response entry in data set [8] (in the presence of S9 in strains TA 9o and TA 1537) is listed as “only a weak response at high concentrations”. In addition, the revertants per plate in data set [6] (TA1537 +S9, 10 μg/plate) amounted to 8; in data set [6] (TA1537 +S9, 50 μg/plate), 6; in [6] (TA1537 +S9, 100 μg/plate) it was 26; in data set [6] (TA1537 +S9, 200 μg/plate), 42; in [6] (TA1537 −S9, 10 μg/plate), 21; in data set [6] (TA1537 −S9, 50 μg/plate), 303. The revertants per plate in data set [6] (TA1537 −S9, 100 μg/plate) was 390; in data set [6] (TA1537 −S9, 200 μg/plate), 225; in data set [9] (TA98 +S9, 10 μg/plate), 8; in [9] (TA98 +S9, 50 μg/plate) it was 6; in [9] (TA98 +S9, 100 μg/plate) it was 26; in data set [9] (TA98 +S9, 200 μg/plate), 42. Besides, the revertants per plate in data set [9] (TA98 −S9, 10 μg/plate) came to 21; in [9] (TA98 −S9, 50 μg/plate), 303; in data set [9] (TA98 −S9, 100 μg/plate) it was 390; in data set [9] (TA98 −S9, 200 μg/plate) it was 225. Further, in data set [7], the “GMP-140 expression: sample treated with light and psoralen (PCD) versus day 5 untreated control (D5)” value is “notable increase above the control”.
